27 molecules from ChEMBL document CHEMBL4732258, “Pyxinol bearing amino acid residues: Easily achievable and promising modulators of P-glycoprotein-mediated multidrug resistance” (Eur J Med Chem, 2021) can be followed below.

Holding throughout (assay type): cell-based
Data set [1] can be described thus: Cytotoxicity against human KBV cells assessed as cell viability at 10 uM incubated for 72 hrs by MTT assay. Conditions: read-out: Activity. (In general: Tetrazolium assays rely on reduction of a dye to a coloured formazan, in cell work by metabolically active cells.)
The subject of data set [2] is KBV. Description: Reversal of Pgp-mediated paclitaxel resistance in human KBV cells assessed as cell viability at 10 uM in presence of paclitaxel incubated for 72 hrs by MTT assay.
Data set [3] concerns KBV. The data set can be described thus: Reversal of Pgp-mediated paclitaxel resistance in human KBV cells assessed as cell viability at 5 uM in presence of paclitaxel incubated for 72 hrs by MTT assay.

Consider `CC(C)(C)OC(=O)N[C@@H](Cc1ccc(OC(C)(C)C)cc1)C(=O)O[C@H]1CC[C@]2(C)[C@H]3C[C@@H](O)[C@@H]4[C@@H]([C@]5(C)CC[C@H](C(C)(C)O)O5)CC[C@@]4(C)[C@]3(C)CC[C@H]2C1(C)C`, for which, in data set [1], the viability at 72 h, 10 µM was determined as 98%. Besides, the Activity with KBV [2] is 71%; in the data set on KBV [3] it was 107%.
For `CC(C)(O)[C@H]1CC[C@@](C)([C@H]2CC[C@]3(C)[C@@H]2[C@H](O)C[C@@H]2[C@@]4(C)CC[C@H](OC(=O)[C@@H](N)CC(=O)O)C(C)(C)[C@@H]4CC[C@]23C)O1` the same measures were 95%, 61% and 106%.
For `CC(C)[C@H](N)C(=O)O[C@H]1CC[C@]2(C)[C@H]3C[C@@H](O)[C@@H]4[C@@H]([C@]5(C)CC[C@@H](C(C)(C)O)O5)CC[C@@]4(C)[C@]3(C)CC[C@H]2C1(C)C`, the viability at 72 h, 10 µM in data set [1] is 96%. Moreover, the Activity in the data set with KBV [2] (filed as modulator) turned out to be 25%; with KBV [3] (filed as modulator), 49%.
In the same order, the values of `C[C@@H](OCc1ccccc1)[C@H](N)C(=O)O[C@H]1CC[C@]2(C)[C@H]3C[C@@H](O)[C@@H]4[C@@H]([C@]5(C)CC[C@H](C(C)(C)O)O5)CC[C@@]4(C)[C@]3(C)CC[C@H]2C1(C)C` are 20%, 18% and 31%.
`CC(C)(C)OC(=O)NCCCC[C@H](NC(=O)OC(C)(C)C)C(=O)O[C@H]1CC[C@]2(C)[C@H]3C[C@@H](O)[C@@H]4[C@@H]([C@]5(C)CC[C@H](C(C)(C)O)O5)CC[C@@]4(C)[C@]3(C)CC[C@H]2C1(C)C`: the viability at 72 h, 10 µM in data set [1] was found to be 147%. In addition, the Activity stood at 31% in the data set on KBV [2] (filed as modulator) and 34% in the data set on KBV [3] (filed as modulator).
In the case of `C[C@@H](OCc1ccccc1)[C@H](NC(=O)OC(C)(C)C)C(=O)O[C@H]1CC[C@]2(C)[C@H]3C[C@@H](O)[C@@H]4[C@@H]([C@]5(C)CC[C@H](C(C)(C)O)O5)CC[C@@]4(C)[C@]3(C)CC[C@H]2C1(C)C`, in data set [1], the viability at 72 h, 10 µM is 138%. The Activity in the data set on KBV [2] is 144%; in the data set on KBV [3], 138%.
For the molecule `CC(C)(O)[C@@H]1CC[C@@](C)([C@H]2CC[C@]3(C)[C@@H]2[C@H](O)C[C@@H]2[C@@]4(C)CC[C@H](OC(=O)CN)C(C)(C)[C@@H]4CC[C@]23C)O1`, the viability at 72 h, 10 µM in data set [1] was 86%. Moreover, the Activity in the data set with KBV [2] is 63%; with KBV [3], 98%.
For `CC(C)(O)[C@H]1CC[C@@](C)([C@H]2CC[C@]3(C)[C@@H]2[C@H](O)C[C@@H]2[C@@]4(C)CC[C@H](O)C(C)(C)[C@@H]4CC[C@]23C)O1`, the viability at 72 h, 10 µM in data set [1] was 91%. The Activity was 63% with KBV [2] and 83% in the data set with KBV [3].
For the molecule `CC(C)(C)OC(=O)N[C@@H](Cc1ccc(OC(C)(C)C)cc1)C(=O)O[C@H]1CC[C@]2(C)[C@H]3C[C@@H](O)[C@@H]4[C@@H]([C@]5(C)CC[C@@H](C(C)(C)O)O5)CC[C@@]4(C)[C@]3(C)CC[C@H]2C1(C)C`, the viability at 72 h, 10 µM in data set [1] turned out to be 104%. Besides, the values for the Activity with KBV [2] (filed as modulator) and with KBV [3] were 22% and 78%, respectively.
In the case of `CC(C)(O)[C@@H]1CC[C@@](C)([C@H]2CC[C@]3(C)[C@@H]2[C@H](O)C[C@@H]2[C@@]4(C)CC[C@H](O)C(C)(C)[C@@H]4CC[C@]23C)O1`, the viability at 72 h, 10 µM in data set [1] amounted to 81%. In addition, the results for the Activity in the data set on KBV [2] and in the data set with KBV [3] were 72% and 74%, respectively.
Consider `CC(C)(O)[C@@H]1CC[C@@](C)([C@H]2CC[C@]3(C)[C@@H]2[C@H](O)C[C@@H]2[C@@]4(C)CC[C@H](OC(=O)[C@@H](N)Cc5c[nH]c6ccccc56)C(C)(C)[C@@H]4CC[C@]23C)O1`, for which the viability at 72 h, 10 µM in data set [1] was found to be 52%. The figures for the Activity with KBV [2] (filed as modulator) and in the data set on KBV [3] (filed as modulator) were 27% and 30%, respectively.
In the case of `CC(C)[C@H](N)C(=O)O[C@H]1CC[C@]2(C)[C@H]3C[C@@H](O)[C@@H]4[C@@H]([C@]5(C)CC[C@H](C(C)(C)O)O5)CC[C@@]4(C)[C@]3(C)CC[C@H]2C1(C)C`, the viability at 72 h, 10 µM in data set [1] was 84%. Besides, the Activity in the data set on KBV [2] (filed as modulator) came out at 23%; in the data set on KBV [3] (filed as modulator), 33%.
Regarding `CC(C)[C@H](NC(=O)OC(C)(C)C)C(=O)O[C@H]1CC[C@]2(C)[C@H]3C[C@@H](O)[C@@H]4[C@@H]([C@]5(C)CC[C@H](C(C)(C)O)O5)CC[C@@]4(C)[C@]3(C)CC[C@H]2C1(C)C`, the viability at 72 h, 10 µM in data set [1] stood at 120%. Moreover, the Activity with KBV [2] (filed as modulator) is 20%; in the data set with KBV [3] (filed as modulator), 31%.
In the same order, the values of `CC(C)(O)[C@H]1CC[C@@](C)([C@H]2CC[C@]3(C)[C@@H]2[C@H](O)C[C@@H]2[C@@]4(C)CC[C@H](OC(=O)[C@@H](N)Cc5ccc(O)cc5)C(C)(C)[C@@H]4CC[C@]23C)O1` are 87%, 27% and 28%.
For `CC(C)(C)OC(=O)C[C@H](NC(=O)OC(C)(C)C)C(=O)O[C@H]1CC[C@]2(C)[C@H]3C[C@@H](O)[C@@H]4[C@@H]([C@]5(C)CC[C@H](C(C)(C)O)O5)CC[C@@]4(C)[C@]3(C)CC[C@H]2C1(C)C` the same measures were 85%, 20% and 32%.
As to `CC(C)(O)[C@@H]1CC[C@@](C)([C@H]2CC[C@]3(C)[C@@H]2[C@H](O)C[C@@H]2[C@@]4(C)CC[C@H](OC(=O)[C@@H](N)CCCCN)C(C)(C)[C@@H]4CC[C@]23C)O1`, in data set [1], the viability at 72 h, 10 µM came out at 81%. The values for the Activity in the data set on KBV [2] and in the data set on KBV [3] were 82% and 98%, respectively.
For `CC(C)(C)OC(=O)N[C@@H](Cc1cn(C(=O)OC(C)(C)C)c2ccccc12)C(=O)O[C@H]1CC[C@]2(C)[C@H]3C[C@@H](O)[C@@H]4[C@@H]([C@]5(C)CC[C@H](C(C)(C)O)O5)CC[C@@]4(C)[C@]3(C)CC[C@H]2C1(C)C` the same measures were 132%, 161% and 165%.
Turning to `CC(C)(C)OC(=O)N[C@@H](Cc1ccccc1)C(=O)O[C@H]1CC[C@]2(C)[C@H]3C[C@@H](O)[C@@H]4[C@@H]([C@]5(C)CC[C@H](C(C)(C)O)O5)CC[C@@]4(C)[C@]3(C)CC[C@H]2C1(C)C`, the viability at 72 h, 10 µM in data set [1] came out at 125%. Moreover, the Activity in the data set on KBV [2] (filed as modulator) was found to be 25%; in the data set on KBV [3] (filed as modulator), 48%.
In the same order, the values of `CC(C)(O)[C@H]1CC[C@@](C)([C@H]2CC[C@]3(C)[C@@H]2[C@H](O)C[C@@H]2[C@@]4(C)CC[C@H](OC(=O)[C@@H](N)Cc5c[nH]c6ccccc56)C(C)(C)[C@@H]4CC[C@]23C)O1` are 81%, 30% and 32%.
For `CC(C)(O)[C@H]1CC[C@@](C)([C@H]2CC[C@]3(C)[C@@H]2[C@H](O)C[C@@H]2[C@@]4(C)CC[C@H](OC(=O)CN)C(C)(C)[C@@H]4CC[C@]23C)O1` the same measures were 106%, 28% and 43%.
On to `CC(C)(C)OC(=O)CC[C@H](NC(=O)OC(C)(C)C)C(=O)O[C@H]1CC[C@]2(C)[C@H]3C[C@@H](O)[C@@H]4[C@@H]([C@]5(C)CC[C@@H](C(C)(C)O)O5)CC[C@@]4(C)[C@]3(C)CC[C@H]2C1(C)C`, for which the viability at 72 h, 10 µM in data set [1] was determined as 46%. The Activity in the data set with KBV [2] (filed as modulator) came out at 17%; in the data set with KBV [3] (filed as modulator), 19%.
In the case of `CC(C)(O)[C@@H]1CC[C@@](C)([C@H]2CC[C@]3(C)[C@@H]2[C@H](O)C[C@@H]2[C@@]4(C)CC[C@H](OC(=O)[C@@H](N)Cc5ccccc5)C(C)(C)[C@@H]4CC[C@]23C)O1`, the viability at 72 h, 10 µM in data set [1] was 100%. Also, the Activity in the data set on KBV [2] (filed as modulator) was determined as 29%; with KBV [3] (filed as modulator), 35%.
`CC(C)(O)[C@@H]1CC[C@@](C)([C@H]2CC[C@]3(C)[C@@H]2[C@H](O)C[C@@H]2[C@@]4(C)CC[C@H](OC(=O)[C@@H](N)CCC(=O)O)C(C)(C)[C@@H]4CC[C@]23C)O1`: in data set [1], the viability at 72 h, 10 µM was determined as 112%. The Activity with KBV [2] was found to be 92%; with KBV [3] it was 95%.
In the same order, the values of `CC(C)(O)[C@@H]1CC[C@@](C)([C@H]2CC[C@]3(C)[C@@H]2[C@H](O)C[C@@H]2[C@@]4(C)CC[C@H](OC(=O)[C@@H](N)CC(=O)O)C(C)(C)[C@@H]4CC[C@]23C)O1` are 106%, 92% and 110%.
On to `CC(C)(O)[C@H]1CC[C@@](C)([C@H]2CC[C@]3(C)[C@@H]2[C@H](O)C[C@@H]2[C@@]4(C)CC[C@H](OC(=O)[C@@H](N)CCCCN)C(C)(C)[C@@H]4CC[C@]23C)O1`, for which the viability at 72 h, 10 µM in data set [1] amounted to 45%. Also, the Activity in the data set with KBV [2] (filed as modulator) was 29%; with KBV [3], 85%.
On to `C[C@@H](OCc1ccccc1)[C@H](N)C(=O)O[C@H]1CC[C@]2(C)[C@H]3C[C@@H](O)[C@@H]4[C@@H]([C@]5(C)CC[C@@H](C(C)(C)O)O5)CC[C@@]4(C)[C@]3(C)CC[C@H]2C1(C)C`, for which the viability at 72 h, 10 µM in data set [1] was found to be 102%. Besides, the Activity is 30% in the data set with KBV [2] (filed as modulator) and 46% in the data set with KBV [3] (filed as modulator).
Regarding `CC(C)(O)[C@@H]1CC[C@@](C)([C@H]2CC[C@]3(C)[C@@H]2[C@H](O)C[C@@H]2[C@@]4(C)CC[C@H](OC(=O)[C@@H](N)Cc5ccc(O)cc5)C(C)(C)[C@@H]4CC[C@]23C)O1`, the viability at 72 h, 10 µM in data set [1] was determined as 97%. Moreover, the Activity in the data set with KBV [2] (filed as modulator) stood at 35%; in the data set with KBV [3], 87%.
